One block for each compound: values may come before it.
How the values were obtained:
Huh-7 [1] = test: Inhibition of self-renewal of human HuH7 cells assessed as reduction in EpCAM positive fraction at 50 uM after 20 mins by propidium iodide staining-based flow cytometric analysis; format: functional; conditions: Huh-7, 20 min
Huh-7 [2] = test: Inhibition of self-renewal of human HuH7 cells assessed as EpCAM positive fraction at 0.5 uM after 20 mins by propidium iodide staining-based flow cytometric analysis (reference value: 91.2 %); format: functional; parameters: scale not given: the % may be the effect or the level left
HEK293 = test: Cytotoxicity against HEK293 cells after 24 hrs by fluorescein diacetate staining-based fluorescence assay; format: cell-based; conditions: Homo sapiens, HEK293, 24 h
Huh-7 [3] = test: Inhibition of self-renewal of human HuH7 cells assessed as EpCAM positive fraction at 5 uM after 20 mins by propidium iodide staining-based flow cytometric analysis (reference value: 91.2 %); format: functional; parameters: scale not given: the % may be the effect or the level left
Huh-7 [4] = test: Inhibition of self-renewal of human HuH7 cells assessed as EpCAM negative fraction at 5 uM after 20 mins by propidium iodide staining-based flow cytometric analysis (reference value: 8.8 %); format: functional; parameters: scale not given: the % may be the effect or the level left
HCT-116 = test: Cytotoxicity against human HCT116 cells after 24 hrs by fluorescein diacetate staining-based fluorescence assay; format: functional, cell-based; conditions: HCT-116, 24 h
Huh-7 [5] = test: Inhibition of self-renewal capacity of human EpCAM-positive HuH7 cells assessed as reduction in sphere formation after 6 days; format: functional, cell-based
DU-145 = test: Cytotoxicity against human DU145 cells after 24 hrs by fluorescein diacetate staining-based fluorescence assay; format: functional, cell-based; conditions: DU-145, 24 h
Huh-7 [6] = test: Inhibition of self-renewal of human HuH7 cells assessed as EpCAM negative fraction at 0.5 uM after 20 mins by propidium iodide staining-based flow cytometric analysis (reference value: 8.8 %); format: functional; parameters: scale not given: the % may be the effect or the level left
Homo sapiens = species on record: Homo sapiens; test: Inhibition of BMI1 promoter in human HCT116 cells assessed as decrease in BMI1 protein expression levels after 24 hrs by Western blot analysis; format: cell-based
[7] = Inhibition of BMI1 promoter (unknown origin) expressed in HEK293T cells after 24 hrs by luciferase reporter gene assay; format: cell-based; conditions: HEK-293T

SMILES: O=[N+]([O-])c1ccc(Nc2ccccc2-c2ccccc2)c2nonc12
inhibition at 50 µM (Huh-7 [1]): 30 to 40%

SMILES: CO[C@@H]1C[C@H](O[C@H]2CC[C@@]3(C)[C@H](CC[C@@H]4[C@@H]3CC[C@]3(C)[C@@H](C5=CC(=O)OC5)CC[C@]43O)C2)O[C@@H](C)[C@@H]1O
Activity (Huh-7 [2]): 80.1%
IC50 (HEK293): 5000 nM
Activity (Huh-7 [3]): 72.9%
Activity (Huh-7 [4]): 27.1%
IC50 (HCT-116): 58 nM
inhibition (Huh-7 [5]): Dose-dependent effect
IC50 (DU-145): 140 nM
Activity (Huh-7 [6]): 19.9%
inhibition (Homo sapiens): Dose-dependent effect
IC50 [7]: 93 nM

SMILES: CO[C@H]1C[C@H](O[C@H]2CC[C@@]3(C)[C@H](CC[C@@H]4[C@@H]3CC[C@]3(C)[C@@H](C5=CC(=O)OC5)CC[C@]43O)C2)O[C@H](C)[C@H]1O
IC50 [7]: 98 nM

SMILES: C[C@]12CC[C@H](O)C[C@H]1CC[C@@H]1[C@@H]2CC[C@]2(C)[C@@H](C3=CC(=O)OC3)CC[C@]12O [DIGITOXIGENIN]
IC50 [7]: 1700 nM

SMILES: C=C(C)[C@@H]1CC[C@]2(C(=O)OC)CC[C@]3(C(=O)O)[C@H](CC[C@@H]4[C@@]5(C)CC[C@H](O)C(C)(C)[C@@H]5CC[C@]43C)[C@@H]12
IC50 [7]: 19500 nM

SMILES: CO[C@H]1C[C@@H](O[C@H]2CC[C@@]3(C)[C@H](CC[C@@H]4[C@@H]3CC[C@]3(C)[C@@H](C5=CC(=O)OC5)CC[C@]43O)C2)O[C@@H](C)[C@@H]1O
IC50 [7]: 450 nM

IC50 [7]: 22700 nM
SMILES: CC1(C)CC[C@]2(C(=O)O)CC[C@]3(C)C(=CC[C@@H]4[C@@]5(C)C[C@@H](O)[C@H](O)C(C)(C)[C@@H]5CC[C@]43C)[C@@H]2C1 [MASLINIC ACID]
